The results in this text go back to PubChem BioAssay AID328 (DTP/NCI, 2004).

The subject of this experiment is BDF1 mice, P388 leukemia ip, median survival T/C. The experiment is described as follows: NCI In Vivo Anticancer Drug Screen. Data for tumor model P388 Leukemia (intraperitoneal) in B6D2F1 (BDF1) mice. The following applies: endpoint: median survival time, higher = longer survival. Summed up: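 Reported as T/C, where T is the survival measurement in dosed animals and C the same measurement in vehicle controls.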

The mark [1] stands for this setting: dose: 100.0 mg/kg/injection, schedule: Q01DX009 (ip), vehicle: saline with Tween-80.
Setting [2] is: dose: 200.0 mg/kg/injection, schedule: Q01DX009 (ip), vehicle: saline with Tween-80.
The mark [3] stands for this setting: dose: 50.0 mg/kg/injection, schedule: Q01DX009 (ip), vehicle: saline with Tween-80.
Where [4] appears, read: dose: 25.0 mg/kg/injection, schedule: Q01DX009 (ip), vehicle: saline with Tween-80.

Each structure is given as a SMILES string. Toxic doses and inconclusive results are not listed. Positions of bridges follow the written chain, without caps; N, C: chain ends. Non-standard residues stand in square brackets, D forms with d. Residues, ends and D or L forms follow the SMILES beside them. Pip(4-oxo) = O=C1CCN[CH](C(=O)O)C1; NMeV = CN[CH](C(=O)O)C(C)C; Sar = CNCC(=O)O

With `O=c1[nH]c(Cl)ncc1F`, the T/C is, setting by setting: (dose: 67.0 mg/kg/injection, schedule: Q01DX009 (ip), vehicle: saline with Tween-80) 100 % of control; (dose: 75.0 mg/kg/injection, schedule: Q04DX003 (ip), vehicle: saline with Tween-80) 113 % of control; under setting [1], 103 % of control; (dose: 150.0 mg/kg/injection, schedule: Q01DX009 (ip), vehicle: saline with Tween-80) 107 % of control; (dose: 150.0 mg/kg/injection, schedule: Q04DX003 (ip), vehicle: saline with Tween-80) 100 % of control; (dose: 225.0 mg/kg/injection, schedule: Q01DX009 (ip), vehicle: saline with Tween-80) 111 % of control. Moreover, the T/C (dose: 300.0 mg/kg/injection, schedule: Q04DX003 (ip), vehicle: saline with Tween-80) was 86 % of control.

On to `O=C(O)COc1ccccc1OCC(=O)O`, for which the T/C by setting is: (dose: 50.0 mg/kg/injection, schedule: Q01DX009 (ip), vehicle: Klucel (hydroxypropylcellulose) (HPC)) 109 % of control; (dose: 100.0 mg/kg/injection, schedule: Q01DX009 (ip), vehicle: Klucel (hydroxypropylcellulose) (HPC)) 100 % of control; (dose: 200.0 mg/kg/injection, schedule: Q01DX009 (ip), vehicle: Klucel (hydroxypropylcellulose) (HPC)) 100 % of control.

Consider `CC(C)c1ccc(N2C(N)=NC(N)=NC2(C)C)cc1`, for which the T/C is 110 % of control (dose: 12.5 mg/kg/injection, schedule: Q01DX005 (ip), vehicle: Klucel (hydroxypropylcellulose) (HPC)); 108 % of control (dose: 25.0 mg/kg/injection, schedule: Q01DX005 (ip), vehicle: Klucel (hydroxypropylcellulose) (HPC)); 105 % of control (dose: 50.0 mg/kg/injection, schedule: Q01DX005 (ip), vehicle: Klucel (hydroxypropylcellulose) (HPC)).

For `CC(C)CC(C(N)=O)c1ccccc1` (centres undefined), the T/C is, setting by setting: (dose: 100.0 mg/kg/injection, schedule: Q01DX001 (ip), vehicle: saline with Tween-80) 100 % of control; (dose: 200.0 mg/kg/injection, schedule: Q01DX001 (ip), vehicle: saline with Tween-80) 104 % of control.

Turning to `CC(C)OC(=O)c1ccc(C(C)C)cc1`, the T/C under setting [1] was 110 % of control and the T/C under setting [2] was 117 % of control.

Take `CCC1C/C(=C2/NC3CCCCC3NC2=O)C(=O)O1` (centres undefined): the T/C is, setting by setting: (dose: 25.0 mg/kg/injection, schedule: Q04DX002 (ip), vehicle: saline with Tween-80) 101 % of control; (dose: 50.0 mg/kg/injection, schedule: Q04DX002 (ip), vehicle: saline with Tween-80) 98 % of control; (dose: 100.0 mg/kg/injection, schedule: Q04DX002 (ip), vehicle: saline with Tween-80) 88 % of control.

For `O=C(CI)Nc1ccc(Br)cc1`, the T/C was 104 % of control (dose: 8.75 mg/kg/injection, schedule: Q01DX009 (ip), vehicle: Klucel (hydroxypropylcellulose) (HPC)); 104 % of control (dose: 17.5 mg/kg/injection, schedule: Q01DX009 (ip), vehicle: Klucel (hydroxypropylcellulose) (HPC)); 90 % of control (dose: 26.25 mg/kg/injection, schedule: Q04DX003 (ip), vehicle: Klucel (hydroxypropylcellulose) (HPC)); 104 % of control (dose: 35.0 mg/kg/injection, schedule: Q01DX009 (ip), vehicle: Klucel (hydroxypropylcellulose) (HPC)).

`CC(C)(C)NCC(O)c1cc(C(F)(F)F)nc2c(C(F)(F)F)cccc12` (centres undefined): the T/C is, setting by setting: under setting [3], 100 % of control; under setting [1], 100 % of control; under setting [2], 97 % of control.

As to `C1CC[N-]CC1.[Cl][Pt+2][Cl].[NH-]C1CC1`, the T/C is 153 % of control (dose: 1.5 mg/kg/injection, schedule: Q01DX005 (ip), vehicle: distilled water + Tween-80); 150 % of control (dose: 1.5 mg/kg/injection, schedule: Q01DX005 (ip), vehicle: water); 164 % of control (dose: 3.0 mg/kg/injection, schedule: Q01DX005 (ip), vehicle: water); 157 % of control (dose: 6.0 mg/kg/injection, schedule: Q01DX005 (ip), vehicle: distilled water + Tween-80); 185 % of control (dose: 6.0 mg/kg/injection, schedule: Q01DX005 (ip), vehicle: water); 176 % of control (dose: 12.0 mg/kg/injection, schedule: Q01DX005 (ip), vehicle: distilled water + Tween-80). For the same compound, the T/C (dose: 12.0 mg/kg/injection, schedule: Q01DX005 (ip), vehicle: water) is 192 % of control.

Turning to `CN(C)c1ccc(C2N(Cc3ccccc3)CCC3CCCCN32)cc1` (centres undefined), the T/C is, setting by setting: under setting [3], 99 % of control; under setting [1], 92 % of control.

Regarding `O=C(O)CP(=O)(O)O`, the T/C (dose: 250.0 mg/kg/injection, schedule: Q03HX024 (ip), vehicle: saline) is 120 % of control.

For `Cc1c2cnccc2c(C)c2c1c1ccccc1n2CC1CO1` (centres undefined), the T/C was 150 % of control (dose: 9.37 mg/kg/injection, schedule: Q01DX009 (ip), vehicle: Klucel (hydroxypropylcellulose) (HPC)); 168 % of control (dose: 11.0 mg/kg/injection, schedule: Q01DX009 (ip), vehicle: saline with Tween-80); 176 % of control (dose: 16.5 mg/kg/injection, schedule: Q01DX009 (ip), vehicle: saline with Tween-80); 106 % of control under setting [4]; 95 % of control (dose: 37.5 mg/kg/injection, schedule: Q01DX009 (ip), vehicle: saline with Tween-80).

As to `Cc1ccc(C)c(C(=O)CCC(=O)O)c1`, the T/C runs as follows: (dose: 12.5 mg/kg/injection, schedule: Q01DX009 (ip), vehicle: saline with Tween-80) 108 % of control; under setting [4], 110 % of control; under setting [1], 91 % of control; under setting [2], 99 % of control; (dose: 200.0 mg/kg/injection, schedule: Q04DX003 (ip), vehicle: saline with Tween-80) 91 % of control; (dose: 400.0 mg/kg/injection, schedule: Q04DX003 (ip), vehicle: saline with Tween-80) 100 % of control.

Consider `Cc1cc2nc3n(c2cc1C)C(C)(C)N=C(N)N3`, for which the T/C is 102 % of control under setting [3] and 112 % of control under setting [1].

`CCOC(=O)C(C#N)C(C(C)=O)C(=O)OCC` (centres undefined): the T/C under setting [4] was 118 % of control; the T/C (dose: 25.0 mg/kg/injection, schedule: Q04DX003 (ip), vehicle: saline sonified) is 95 % of control; the T/C under setting [3] is 90 % of control; the T/C (dose: 50.0 mg/kg/injection, schedule: Q04DX003 (ip), vehicle: saline sonified) was 100 % of control; the T/C (dose: 100.0 mg/kg/injection, schedule: Q04DX003 (ip), vehicle: saline sonified) is 104 % of control.

In the case of `CCOC(=O)c1c[nH]c2cc(C(F)(F)F)ccc2c1=O`, the T/C is, setting by setting: (dose: 6.25 mg/kg/injection, schedule: Q01DX009 (ip), vehicle: gum acacia) 116 % of control; (dose: 12.5 mg/kg/injection, schedule: Q01DX009 (ip), vehicle: gum acacia) 100 % of control; (dose: 25.0 mg/kg/injection, schedule: Q01DX009 (ip), vehicle: gum acacia) 98 % of control; (dose: 25.0 mg/kg/injection, schedule: Q04DX003 (ip), vehicle: gum acacia) 91 % of control; (dose: 100.0 mg/kg/injection, schedule: Q04DX003 (ip), vehicle: gum acacia) 87 % of control.

Regarding `OP(=S)(c1ccccc1)c1ccccc1`, the T/C was 110 % of control (dose: 50.0 mg/kg/injection, schedule: Q01DX009 (ip), vehicle: other); 106 % of control (dose: 100.0 mg/kg/injection, schedule: Q01DX009 (ip), vehicle: other); 108 % of control (dose: 200.0 mg/kg/injection, schedule: Q01DX009 (ip), vehicle: other).

Regarding `COc1c(OC)c(OC)c2c(c1OC)c(=O)c1ccccc1n2C`, the T/C runs as follows: (dose: 50.0 mg/kg/injection, schedule: Q01DX010 (ip), vehicle: carboxymethylcellulose (CMC)) 104 % of control; (dose: 100.0 mg/kg/injection, schedule: Q01DX010 (ip), vehicle: carboxymethylcellulose (CMC)) 122 % of control.

With `CC(C)C1NC(=O)C(N)C(C)OC(=O)C(C(C)C)N(C)C(=O)CN(C)C(=O)C2CC(=O)CCN2C1=O` (centres undefined) (tested in a mixture with another compound) (H-TV[Pip(4-oxo)][Sar][NMeV]; ester 1-C; configuration not given here), the T/C was 168 % of control (dose: 50.0 micrograms/kg/injection, schedule: Q01DX009 (ip), vehicle: saline + alcohol); 203 % of control (dose: 75.0 micrograms/kg/injection, schedule: Q01DX009 (ip), vehicle: saline + alcohol); 192 % of control (dose: 100.0 micrograms/kg/injection, schedule: Q01DX009 (ip), vehicle: saline + alcohol); 230 % of control (dose: 150.0 micrograms/kg/injection, schedule: Q01DX009 (ip), vehicle: saline + alcohol).

In the case of `O=c1[nH]nc(-c2ccccc2)nc1/C(=N\Nc1ccc([N+](=O)[O-])cc1)c1ccccc1`, the T/C under setting [3] is 89 % of control, the T/C under setting [1] is 89 % of control and the T/C under setting [2] was 98 % of control.

`c1ccc(-c2nc3ccccc3nc2-c2ccc(-c3ccc(-c4nc5ccccc5nc4-c4ccccc4)cc3)cc2)cc1`: the T/C is 88 % of control under setting [3] and 88 % of control under setting [2].
